According to article PMC6222787, “Anti-Inflammatory Activities of Compounds Isolated from the Rhizome of Anemarrhena asphodeloides” (Molecules : A Journal of Synthetic Chemistry and Natural …, 2018):
Read-outs that look alike come from different tables or passages of the source.

Assays:
[1] = tested on: LPS-induced NO production in N9 microglial cells; assay: LPS-induced NO production (Griess assay); assay type: cell-based, mouse; conditions: for Nitrite: control 4.60, LPS group 31.81 μM; for Nitrite / inhibition at 25 µM / inhibition at 50 µM / % Inhibition of NO Production: mean ± S.E.M.; for inhibition at 25 µM / inhibition at 50 µM: Mus musculus
Protocol: Figure 2 Inhibitory effects of TBIII (A) and t-HL (B) in LPS-stimulated N9 microglial cells. Cells were pretreated with different concentrations of TBIII and t-HL 1 h prior to the addition of LPS (100 ng/mL) and were further incubated for 24 h. NO production was determined by using the Griess reagent. IC50 values and curve fitting were determined using Graphpad Prism (GraphPad, Avenida, CA, USA).
Accumulation of nitrite, a metabolite of NO in the culture media, was measured by Griess assay as previously reported. Briefly, cells were stimulated with 100 ng/mL of LPS for 24 h in the presence of the test compounds (0–50 μM).

[2] = MTT assay for cell viability; conditions: mouse, N9 microglial cells, % Cell Viability, 24 h, MTT, mean ± S.E.M.; for viability at 24 h, 25 µM: 25 μM compound; for viability at 24 h, 50 µM: 50 μM compound
Protocol: (§1) The N9 microglial cell line was obtained from China Cell Line Bank. The cells were grown at 37 °C in IMDM supplemented with 10% heat-inactivated FBS under a humidified atmosphere of 5% CO2. In this experiment, cells were allowed to acclimate for 24 h before treatments.
(§2) Cell viability was evaluated by the MTT reduction assay [36]. Cells were seeded in 96-well plates at a density of 2 × 10^4 cells/well and allowed to grow for 24 h before treatments. Thereafter, 100 μL medium containing various concentrations (0–50 μM) of compounds were added and incubated for another 24 h. MTT was dissolved in DD water (5 mg/mL) and 10 μL were added to each well. After 4 h, the medium was removed and 100 μL DMSO were filled in each well. The optical density was measured at 490 nm on a Flexstation 3 (Molecular Devices, Silicon Valley, CA, USA).

in vitro = conditions: mouse, % Cell Viability
Protocol: as §1, §2

[3] = 25 μM compound, LPS 100 ng/mL, 24 h
[4] = 50 μM compound, LPS 100 ng/mL, 24 h
[5] = N9, 24 h, 25 μM compound, LPS 100 ng/mL, 24 h, read-out: % Inhibition of NO Production
[6] = N9, 24 h, 50 μM compound, LPS 100 ng/mL, 24 h, read-out: % Inhibition of NO Production
[7] = 50 μM compound, LPS 100 ng/mL, 24 h, 50 µM
[8] = 25 μM compound, LPS 100 ng/mL, 24 h, 25 µM
[9] = N9, 24 h, read-out: % Inhibition of NO Production, 25 μM compound, LPS 100 ng/mL, 24 h
[10] = N9, 24 h, read-out: % Inhibition of NO Production, 50 μM compound, LPS 100 ng/mL, 24 h
[11] = N9, 25 μM compound, LPS 100 ng/mL, 24 h, read-out: % Inhibition of NO Production
[12] = N9, 50 μM compound, LPS 100 ng/mL, 24 h, read-out: % Inhibition of NO Production

SMILES	Nitrite [1, 3] [µM]	Nitrite [1, 4] [µM]	inhibition at 25 µM [1, 5] [%]	inhibition at 50 µM [1, 6] [%]	viability at 24 h, 25 µM [2] [%]	viability at 24 h, 50 µM [2] [%]	further results
C=CCOC1O[C@H](CO)[C@@H](O)[C@H](O)[C@H]1O (stereo in doubt) [Compound 26, α-D-Glucose monoallyl ether]	29.57 ± 0.71	22.60 ± 2.19	7.13 ± 2.23	29 ± 8.43	107.2 ± 0.63	105 ± 16.1	
COc1cc(O)c(C(=O)c2ccc(O)cc2)c(O)c1 [Compound 1, 2,6,4′-trihydroxy-4-methoxybenzophenone]	26.78 ± 1.27	19.29 ± 0.10	15.3 ± 9.4	41.7 ± 3.9	98.7 ± 8.27	97.5 ± 1.85	
COc1ccc(C(=O)c2ccc(O)cc2)c(OC2OC(CO)C(O)C(O)C2O)c1O (stereo not drawn) [Compound 2, Zimoside A]	26.64 ± 1.13	21.41 ± 0.92	16.3 ± 3.55	32.8 ± 2.88	97.2 ± 3.27	94.6 ± 5.47	
O=C(c1ccc(O)cc1)c1c(O)cc(O)cc1O [Compound 3, Iriflophene]	26.06 ± 1.24	20.41 ± 0.38	18.1 ± 3.88	35.9 ± 1.2	107 ± 3.62	113 ± 5.32	
CC(C)CCC1(O)OC2C(O)C3C4CCC5CC(OC6OC(CO)C(O)C(O)C6OC6OC(CO)C(O)C(O)C6O)CCC5(C)C4CCC3(C)C2C1C (stereo not drawn) [Compound 4, Anemarrhenasaponin II]	9.52 ± 0.84	3.80 ± 0.53					% Inhibition of NO Production [1, 7]: 87.98 ± 2.99 %; cytotoxicity against N9 microglial cells (in words) (N9 microglial cells): potent cytotoxicity; cell viability reduced to (N9 microglial cells; mouse, 24 h): ≤ 60%; % Cell Viability (N9 microglial cells; mouse, 24 h, 25 µM): 63.92 ± 5.98 %; % Cell Viability (N9 microglial cells; mouse, 24 h, 50 µM): 8.57 ± 0.11 %
CC(C)CCC1(O)OC2C(O)C3C4CCC5CC(OC6OC(CO)C(O)C(O)C6OC6OC(CO)C(O)C(O)C6O)CCC5(C)C4CCC3(C)C2C1C (stereo not drawn) [Compound 5, Anemarrhenasaponin I]	29.82 ± 0.24	19.14 ± 0.59					% Inhibition of NO Production [1, 8]: 6.36 ± 0.76 %; % Inhibition of NO Production [1, 7]: 39.90 ± 1.85 %; cytotoxicity against N9 microglial cells (in words) (N9 microglial cells): not; % Cell Viability (N9 microglial cells; mouse, 24 h, 25 µM): 110.42 ± 4.67%; % Cell Viability (N9 microglial cells; mouse, 24 h, 50 µM): 115.47 ± 6.83%
CC(CCC1(O)OC2CC3C4CCC5CC(OC6OC(CO)C(O)C(O)C6OC6OC(CO)C(O)C(O)C6O)CCC5(C)C4CCC3(C)C2C1C)COC1OC(CO)C(O)C(O)C1O (stereo not drawn) [Compound 6, Anemarnoside B]	40.89 ± 2.04	26.38 ± 2.63			115 ± 5.52	104 ± 16.5	inhibition at 25 µM [1, 9]: -28.3 ± 6.4%; inhibition at 50 µM [1, 10]: 17.2 ± 8.26%
CC(CCC1(O)OC2CC3C4CCC5CC(OC6OC(CO)C(OC7OC(CO)C(O)C(OC8OCC(O)C(O)C8O)C7OC7OC(CO)C(O)C(O)C7O)C(O)C6O)C(O)CC5(C)C4CCC3(C)C2C1C)COC1OC(CO)C(O)C(O)C1O (stereo not drawn) [Compound 7, Hostaplantagineoside C]	32.76 ± 0.85	23.52 ± 0.37			84.9 ± 1.82	79.7 ± 6.03	inhibition at 25 µM [1, 11]: -3.57 ± 8.75%; inhibition at 50 µM [1, 12]: 25.8 ± 2.4%
CC(CCC1(O)OC2CC3C4CCC5CC(OC6OC(CO)C(OC7OC(C)C(O)C(O)C7O)C(O)C6OC6OC(C)C(O)C(O)C6O)C(O)CC5(C)C4CCC3(C)C2C1C)COC1OC(CO)C(O)C(O)C1O (stereo not drawn) [Compound 8, Tuberoside G]	35.05 ± 0.68	27.65 ± 0.74					inhibition at 25 µM [1, 9]: -10.8 ± 2.14%; inhibition at 50 µM [1, 10]: 13.2 ± 2.32%; viability at 24 h, 25 µM (in vitro): 113 ± 4.14%; viability at 24 h, 50 µM (in vitro): 99.3 ± 2.46%
COC1(CCC(C)COC2OC(CO)C(O)C(O)C2O)OC2CC3C4CC=C5CC(O)CC(OC6OC(C)C(O)C(OC7OCC(O)C(O)C7O)C6OC6OC(CO)C(O)C(O)C6O)C5(C)C4CCC3(C)C2C1C (stereo not drawn) [Compound 9, Spicatoside B]	34.46 ± 0.41	24.20 ± 0.29					inhibition at 25 µM [1, 9]: -8.22 ± 1.3%; inhibition at 50 µM [1, 10]: 24 ± 0.9%; viability at 24 h, 25 µM (in vitro): 99.7 ± 3.13%; viability at 24 h, 50 µM (in vitro): 94.3 ± 3.21%
CC1=C(CCC(C)COC2OC(CO)C(O)C(O)C2O)OC2CC3C4CCC5CC(OC6OC(CO)C(O)C(O)C6OC6OC(CO)C(O)C(O)C6O)C(O)CC5(C)C4CCC3(C)C12 (stereo not drawn) [Compound 10, Timosaponin D]	29.22 ± 0.60	20.78 ± 2.00					inhibition at 25 µM [1, 9]: 8.57 ± 1.87%; inhibition at 50 µM [1, 10]: 34.8 ± 6.27%; viability at 24 h, 25 µM (in vitro): 111 ± 4.39%; viability at 24 h, 50 µM (in vitro): 110 ± 2.57%
CC1=C(CCC(C)COC2OC(CO)C(O)C(O)C2O)OC2CC3C4CCC5CC(OC6OC(CO)C(O)C(O)C6OC6OC(CO)C(O)C(O)C6O)CCC5(C)C4CCC3(C)C12 (stereo not drawn) [Compound 12, Macrostemonoside F]	19.64 ± 1.21	11.82 ± 1.03					% Inhibition of NO Production [1, 8]: 38.33 ± 3.80 %; % Inhibition of NO Production [1, 7]: 62.89 ± 3.22 %; % Cell Viability (N9 microglial cells; mouse, 24 h, 25 µM): 104.74 ± 3.16%; % Cell Viability (N9 microglial cells; mouse, 24 h, 50 µM): 105.77 ± 2.84%
CC1=C(CCC(C)COC2OC(CO)C(O)C(O)C2O)OC2CC3C4CCC5CC(OC6OC(CO)C(O)C(O)C6OC6OC(CO)C(O)C(O)C6O)CCC5(C)C4CCC3(C)C12 (stereo not drawn) [Compound 13, Timosaponin C]	24.24 ± 1.32	13.36 ± 0.56					% Inhibition of NO Production [1, 8]: 23.94 ± 4.13%; % Inhibition of NO Production [1, 7]: 58.10 ± 1.75 %; inhibitory activity on NO production (in words) ([1]; compared with compound 11): much weaker inhibitory activity; % Cell Viability (N9 microglial cells; mouse, 24 h, 25 µM): 109.04 ± 4.85%; % Cell Viability (N9 microglial cells; mouse, 24 h, 50 µM): 97.19 ± 6.46%
C[C@@H]1O[C@@H](O[C@H]2[C@H](OC(=O)[C@]34CCC(C)(C)C[C@H]3C3=CC[C@@H]5[C@@]6(C)C[C@H](O)[C@H](O[C@@H]7O[C@H](CO)[C@@H](O)[C@H](O[C@@H]8O[C@H](CO)[C@@H](O)[C@H](O)[C@H]8O)[C@H]7O)C(CO)(CO)[C@@H]6CC[C@@]5(C)[C@]3(C)C[C@H]4O)OC[C@H](O)[C@@H]2O)[C@H](O)[C@H](O)[C@H]1O[C@@H]1OC[C@@H](O)[C@H](O[C@@H]2OC[C@](O)(CO)[C@H]2O)[C@H]1O [Compound 16, Platycodin D2]	33.68 ± 1.44	24.94 ± 0.45	-5.78 ± 4.51	21.7 ± 1.4	114 ± 4.62	101 ± 1.83	
C[C@@H]1O[C@@H](O[C@H]2[C@H](OC(=O)[C@]34CCC(C)(C)C[C@H]3C3=CC[C@@H]5[C@@]6(C)C[C@H](O)[C@H](O[C@@H]7O[C@H](CO)[C@@H](O)[C@H](O[C@@H]8O[C@H](CO)[C@@H](O)[C@H](O)[C@H]8O)[C@H]7O)[C@@](C)(CO)[C@@H]6CC[C@@]5(C)[C@]3(C)C[C@H]4O)OC[C@H](O)[C@@H]2O)[C@H](O)[C@H](O)[C@H]1O[C@@H]1OC[C@@H](O)[C@H](O[C@@H]2OC[C@](O)(CO)[C@H]2O)[C@H]1O [Compound 17, Polygalacin D2]	31.14 ± 0.78	26.21 ± 0.82	2.25 ± 2.46	17.7 ± 3.14	97.5 ± 1.83	88 ± 8.92	
O=c1cc(-c2ccc(O)cc2)oc2cc(O)c([C@@H]3O[C@H](CO)[C@@H](O)[C@H](O)[C@H]3O)c(O)c12 [Compound 20, Isovitexin]	28.39 ± 0.07	22.82 ± 0.27	10.2 ± 4.73	29.8 ± 0.6	135 ± 11.8	95.7 ± 2.75	
O=c1cc(-c2ccc(O)cc2)oc2c([C@@H]3O[C@H](CO)[C@@H](O)[C@H](O)[C@H]3O)c(O)cc(O)c12 [Compound 21, Vitexin]	28.88 ± 1.38	17.81 ± 1.13			90.5 ± 2.51	81.8 ± 4.38	inhibition at 25 µM [1, 11]: 9.39 ± 4.33%; inhibition at 50 µM [1, 12]: 44.1 ± 3.56%
N[C@@H](Cc1c[nH]c2ccccc12)C(=O)O [Compound 24, Tryptophan]	30.49 ± 0.93	24.19 ± 0.72			105 ± 6.13	92.4 ± 8.71	inhibition at 25 µM [1, 9]: 4.24 ± 2.92%; inhibition at 50 µM [1, 10]: 24 ± 2.27%
Nc1ncnc2c1ncn2[C@@H]1O[C@H](CO)[C@@H](O)[C@H]1O [Compound 25, Adenosine]	27.43 ± 1.35	20.69 ± 1.74	13.9 ± 4.23	35.1 ± 5.47	81.6 ± 1.26	80.5 ± 6.19	
